Source: patent publication US20030023104A1, “Therapeutic compound - fatty acid conjugates” (COMMONWEALTH SCIENTIFIC AND INDUSTRIAL RESEARCH ORGANISATION, priority 1995, published 2003)
Where “and” joins values, the source holds several entries; their conditions need not be identical. Identical values can stand only once. Like-named read-outs stand apart in the source and are kept apart here.

Columns and labels:
[1] = system: peripheral blood mononuclear cells (PBMC); assay: Cytotoxicity of AZT and conjugates, MTS viability assay, PBMC; assay type: cell-based, human; conditions: 40 h, drug in ethanol
Protocol: (§1) The cytotoxicity of AZT and AZT-fatty acid conjugates (AZT-Suc-GTP1P2 and P3) was tested in vitro with JURKAT (acute T cell human leukemia) and peripheral blood mononuclear cells (PBMC).
Human peripheral blood mononuclear cells (PBMC) were isolated from three healthy donors by centrifugation on Ficoll-Paque (Pharmacia). Cells were seeded into a 96-well plates at a density of 2×10^5 cells/200 ul complete RPMI ± drug and cultured for 40 h.
(§2) Each concentration was tested in at least 3 wells.

HIV-I MN = assay: Anti HIV activity, Ag gp120 production in infected C8166 cells; assay type: cell-based; conditions: for Ratio of AZT: Conjugate EC50: C8166 cell line; for EC50: C8166 cells infected with HIV-I MN, 5 days, read-out: EC50 (concentration which reduces Ag gp120 by 50% in infected cell cultures)
Protocol: (§3) The anti-HIV activities of AZT-Suc-GTP1 and AZT-Suc-GTP2 were also tested. Infected cells were incubated for 5 days with compound. Compounds were dissolved in DMSO and 5-fold dilutions were used. The following parameters were measured: syncytia formation, virus antigen gp120 production, cell survival. Cytotoxicity is also measured in uninfected cells.
(§4) C8166 (human T-lymphoblastoid cells) infected with HIV-I MN
(§5) EC50=concentration which reduces Ag gp120by 50% in infected cell cultures.

[2] = system: JURKAT (acute T cell human leukemia); assay: Cytotoxicity of AZT and conjugates, MTS viability assay, JURKAT; assay type: cell-based
Protocol: as §1, §2

[3] = system: JM (semi mature human T-cell from lymphoblastoid leukemia); assay: Cell growth (cytotoxicity) in JM cells; assay type: cell-based; conditions: for IC50: 5 days, read-out: IC50 (concentration of drug which reduces cell growth by 50%)
Protocol: as §3
(§6) JM (semi mature human T-cell from lymphoblastoid leukemia) infected with HIV-I U4550
(§7) IC50=concentration of drug which reduces cell growth by 50%.

HIV-I U4550 = assay: Anti HIV activity, Ag gp120 production in infected JM cells; assay type: cell-based; conditions: for Ratio of AZT: Conjugate EC50: JM cell line; for EC50: JM cells infected with HIV-I U4550, 5 days, read-out: EC50 (concentration which reduces Ag gp120 by 50% in infected cell cultures)
Protocol: as §3, §6, §5

[4] = system: C8166 (human T-lymphoblastoid cells); assay: Cell growth (cytotoxicity) in C8166 cells; assay type: cell-based; conditions: for IC50: 5 days, read-out: IC50 (concentration of drug which reduces cell growth by 50%)
Protocol: as §3, §4, §7

[5] = system: JURKAT cells (acute T cell human leukemia)
Protocol: The cytotoxicity of chlorambucil and chlorambucil fatty acid conjugates (CGTP1. P2 and P3) were tested in vitro with JURKAT cells (acute T cell human leukemia). Cells were incubated with drug and viability was determined by a colourmetric proliferation test. Cytotoxicity towards other cells lines was also tested (PC3 human prostate cancer cells, B16 mouse melanoma cells and human peripheral blood mononuclear cells).
JURKAT cells were seeded into 96-well plates at a density of 1.6×10^4 cells/200 μl complete RPMI ± drug and cultured for 64 h. A 1:3 split of confluent PC3 cells in a 75 cm^2 flask were seeded into a 96-well plate and cultured for 48 h in complete RPMI. Media was removed and complete RPMI ± drug was added to wells. Cells were further cultured for 72 h.
i) Ethanol. Drugs were dissolved in ethanol and added to culture media. The final concentration of ethanol in media was no greater than 1% (v/v). This delivery was used for experiments with JURKAT, PBMC, PC3 and B16 cell types.
ii) Coating of plates. Drugs were dissolved in ethanol and aliquots (up to 40 μl) were added to 90% (v/v) isopropanol. Solution (50 μl) was then added to wells of a 96-well plate and the solvent evaporated by heating at 37° C. Media ± cells was then added. This delivery was used for some experiments with JURKAT cells.
Viability was determined using the MTS assay (CellTiter 96TM AQueous Non-Radioactive Cell Proliferation Assay) from Promega. Reagent (40 μl) was added to each well and absorbance values at 490 nm were determined 1 to 4 h later. The effect of drug on cell viability was compared to cultures set up containing no drug (100% viability). Wells containing no cells were used to control for background absorbance (0% viability). Each concentration was tested in at least 3 wells. Concentrations necessary to cause a 50% inhibition of cellular growth of control cells (IC50) were calculated by linear regression.

B16 mouse melanoma cells = assay: Cytotoxicity of chlorambucil and conjugates, MTS assay, B16; assay type: cell-based; conditions: for IC50: B16, ethanol delivery, 48 h
Protocol: Media was removed and complete EMEM ± drug was added to wells. Cells were further cultured for 48 h.
as §2

[6] = system: PC3 human prostate cancer cells; assay: Cytotoxicity of chlorambucil and conjugates, MTS assay, PC3; assay type: cell-based; conditions: for IC50: PC3, ethanol delivery, 72 h
Protocol: Cells were further cultured for 72 h.
as §2

[7] = system: human peripheral blood mononuclear cells; assay: Cytotoxicity of chlorambucil and conjugates, MTS assay, PBMC; assay type: cell-based; conditions: for IC50: ethanol delivery
Protocol: Human peripheral blood mononuclear cells (PBMC) were isolated from one healthy donor by centrifugation on Ficoll-Paque (Pharmacia). Cells were seeded into a 96-well plates at a density of 2×10^5 cells/200 μl complete RPMI ± drug and cultured for 40 h.
as §2

[8] = system: pain response on heated plate; conditions: for Time Response ± SEM: doses 5, 10 & 20 mg Morphine/kg pooled, 12 mice per group; for Behaviour Score ± SEM: pooled doses, panel score 0 (agitated) to 3 (placid)
Protocol: The biological activities of Morphine (Mo) and fatty acid conjugates were tested in an antinociceptive assay using mice. Various doses and duration of pain-killing effect of the drugs were examined.
Quackenbush Strain mice (male, 5-week-old, approximately 30 g live weight) were used for the experiments. Animals were given free access to food and water prior to and during the experiment. Animals were divided into groups of 12 and individually weighed. The mean weight for each group was calculated. Mice were then placed on a metal block heated to 50° C. and the time taken for the animals to show signs of discomfort was measured (baseline response: control). Mice were then injected intraperitoneally (ip) with various doses of Morphine or Morphine-fatty acid conjugate. Morphine was made up in a H2O solution and Morphine-fatty acids were made up in an emulsion containing 10% glycerylmonooleate, 21% Miglyol, 6% ethanol, 24% Tween 80 (33%) and 39% H2O. 0.2 ml of appropriate solution was injected ip into each mouse. At different times after injection, responses on the heated plate were measured. In each experiment 3 doses of Morphine and Morphine-fatty acid and 2 time points were tested. A single mouse was used for each treatment and the entire experiment repeated at least 3 times. […] Members of the panel were asked to score mice behaviour according to the following key:
0=agitated mouse, distressed
1=showing mild discomfort
2=not agitated or uncomfortable but still alert
3=placid. docile; not at all worried.
Results from the panel were averaged.

coordination of mice = assay: Coordination on Rotor-Rod; assay type: in vivo, Quackenbush Strain mice; conditions: 1 and 4 hr after ip injection, 1.6 rpm
Protocol: Coordination of mice after treatment was also assessed by placing treated animals on a Rotor-Rod at 1.6 rpm. The ability of animals to stay on the rod was assessed.

B16 melanoma cells = assay: Tumour Cytotoxicity Model (B16 melanoma in C57 mice); assay type: in vivo, C57 black mice; design: Mean (standard error) of B16 tumour volume adjusted for the variation in initial volume: scale not given here; conditions: for Mean (standard error) of B16 tumour volume adjusted for the variation in initial volume: statistically modified tumour volume; for B16 Tumour Volume: individual mice
Protocol: Groups of C57 black mice were given an initiation dose of 2×10^5 B16 melanoma cells as an intradermal injection. The cells were suspended in MEM without serum. The abdomen was clipped and 100 μl of cells + MEM was injected. […] The tumours were measured with a micrometer and photographed just prior to the injection of drug (day 8-10).
The cytotoxic drugs and their fatty acid conjugates were dissolved or suspended in 4:1 soy bean oil:ethyl oleate. A 10 mg/ml or a 20 mg/ml solution of each parent drug or the fatty acid conjugate made to the same molar concentration as the parent drug was then injected into the same region as the tumour at a dose of 0.5 mg or 1 mg. The tumours were then photographed, measured and re-injected every two to three days.

[9] = JURKAT, addition of ethanol solution to culture media
[10] = JURKAT, coating of plates (Table 8)
[11] = JURKAT, drugs coated onto plates (Table 9)

Compound | Ratio of AZT: Conjugate EC50 (HIV-I MN) | EC50 (HIV-I MN) [µM] | fold more cytotoxic than AZT [3] | IC50 [3] [µM] | Ratio of AZT: Conjugate EC50 (HIV-I U4550) | EC50 (HIV-I U4550) [µM] | fold more cytotoxic than AZT [4] | IC50 [4] [µM] | IC50 [5, 9] [µM] | IC50 [5, 10] [µM] | IC50 [5, 11] [µM] | IC50 ([5]; JURKAT, ethanol delivery, 64 h) [µM] | IC50 (B16 mouse melanoma cells) [µM] | IC50 [6] [µM] | IC50 ([7]; PBMC (1) = one donor, 40 h) [µM] | IC50 ([7]; PBMC (3) = three donors) [µM] | mean time response ([8]; 5 mg Mo/kg ip, 1 hr) | mean time response ([8]; 5 mg Mo/kg ip, 4 hr) | mean time response ([8]; 5 mg Mo/kg ip, 6 hr) | Time Response ± SEM ([8]; 1 hr after ip injection) [s] | further results
CCCCCCCCCCCCCCCC(=O)OCC(CO)(CO)NC(=O)CNC(=O)CCC(=O)OC[C@H]1O[C@@H](n2cc(C)c(=O)[nH]c2=O)C[C@@H]1N=[N+]=[N-] [AZT-Suc-GTP1] | 1.3 | 0.012 | 50 | 100 | 12.5 | 8 | 50 | 100 | – | – | – | – | – | – | – | – | – | – | – | – | IC50 [1]: 26.7 µM; times more cytotoxic than the parent drug ([2]; JURKAT cells, versus AZT): 40; IC50 ([2]; JURKAT, 64 h, drug in ethanol, MTS): 43 µM
CCCCCCCCCCCCCCCC(=O)OCC(CO)(COC(=O)CCCCCCCCCCCCCCC)NC(=O)CNC(=O)CCC(=O)OC[C@H]1O[C@@H](n2cc(C)c(=O)[nH]c2=O)C[C@@H]1N=[N+]=[N-] [AZT-Suc-GTP2] | 0.5 | 0.032 | 25 | 200 | approx. 0.5 | > 200 | 25 | 200 | – | – | – | – | – | – | – | – | – | – | – | – | –
CCCCCCCCCCCCCCCC(=O)OCC(CO)(CO)NC(=O)CNC(=O)CCCc1ccc(N(CCCl)CCCl)cc1 [CGTP1, Chlorambucil-Gly-Tris-Monopalmitate] | – | – | – | – | – | – | – | – | 6.5 | 8.6 | 8.4 | 6.5 | 23.1 | 10.7 | 7.1 | 5.5 | – | – | – | – | Clorambucil to CGTP1 Ratio (IC50) ([5]; JURKAT): 15 and 15.5; cytotoxicity to JURKAT cells (in words) ([5]; comparison of conjugate, equimolar mixture and GTP1 alone): more cytotoxic to JURKAT cells than an equimolar mixture of chlorambucil and GTP1; Clorambucil to CGTP1 Ratio (IC50) (B16 mouse melanoma cells; B16): 1.6; Clorambucil to CGTP1 Ratio (IC50) ([6]; PC3): 15.0; fold increase in toxicity to normal cells (PBMC) versus chlorambucil ([7]; PBMC): approximately 5; Clorambucil to CGTP1 Ratio (IC50) ([7]; PBMC (1)): 6.3; Clorambucil to CGTP1 Ratio (IC50) ([7]; PBMC (3)): approx. 4
CN1CC[C@]23c4c5ccc(O)c4O[C@H]2[C@@H](O)C=C[C@H]3[C@H]1C5 [Morphine, reference compound] | – | – | – | – | – | – | – | – | – | – | – | – | – | – | – | – | 27.8 (4) sec | 23.9 (8) sec | 20.0 (4) sec | 32.7 ± 2.74 | mean time response ([8]; 1 mg Mo/kg ip, 4 hr, standard error of each mean ±2.86): 23.2 s; mean time response ([8]; 1 mg Mo/kg ip, 6 hr, standard error of each mean ±2.86): 20.8 s; mean time response ([8]; 10 mg Mo/kg ip, 4 hr, standard error of each mean ±2.86): 23.0 s; mean time response ([8]; 10 mg Mo/kg ip, 6 hr, standard error of each mean ±2.86): 24.2 s; Behaviour Score ± SEM ([8]; 1 hr after ip injection): 2.46 ± 0.166; Time Response ± SEM ([8]; 4 hr after ip injection): 28.2 ± 2.74 s; Behaviour Score ± SEM ([8]; 4 hr after ip injection): 1.93 ± 0.166; ability to stay on the Rotor-Rod (coordination) (coordination of mice): able to stay on the rotor-rod
CCCCCCCCCCCCCCCC(=O)OCC(CO)(COC(=O)CCCCCCCCCCCCCCC)NC(=O)CNC(=O)CCC(=O)Oc1ccc2c3c1O[C@H]1[C@@H](O)C=C[C@H]4[C@@H](C2)N(C)CC[C@@]341 [Morphine-Suc-GTP2, Morphine-Suc-Gly-Tris-Dipalmitate] | – | – | – | – | – | – | – | – | – | – | – | – | – | – | – | – | 24.0 (4) sec | 30.5 (8) sec | 27.8 (4) sec | 26.7 ± 2.74 | Behaviour Score ± SEM ([8]; 1 hr after ip injection): 2.34 ± 0.166; Time Response ± SEM ([8]; 4 hr after ip injection): 31.2 ± 2.74 s; Behaviour Score ± SEM ([8]; 4 hr after ip injection): 2.35 ± 0.166; duration of pain-killing effect compared with morphine ([8]; ip injection): longer lasting pain-killing effect than unconjugated morphine; ability to stay on the Rotor-Rod (coordination) (coordination of mice): able to stay on the rotor-rod
Chlorambucil [reference compound] | – | – | – | – | – | – | – | – | 101 | 219 | 219 | 101 | 36.5 | 160 | 45 | < 22 | – | – | – | – | difference in tumour volume from the Vehicle group (95% level) (B16 melanoma cells; 0.5 mg and 1.0 mg groups): significant difference; Mean (standard error) of B16 tumour volume adjusted for the variation in initial volume (B16 melanoma cells; 13/11/95, 0.5 mg): 3.01 (0.610); Mean (standard error) of B16 tumour volume adjusted for the variation in initial volume (B16 melanoma cells; 15/11/95, 0.5 mg): 3.29 (0.955); Mean (standard error) of B16 tumour volume adjusted for the variation in initial volume (B16 melanoma cells; 16/11/95, 0.5 mg): 3.46 (1.15); Mean (standard error) of B16 tumour volume adjusted for the variation in initial volume (B16 melanoma cells; 17/11/95, 0.5 mg): 3.65 (1.38); toxicity observed in test group (B16 melanoma cells; C57 mice, repeated injection every two to three days): High toxicity; B16 Tumour Volume (B16 melanoma cells; Day 1, drug dose 0.5 mg injected at tumour region): 0.5 mm^2 and 1.6 mm^2 and 8.2 mm^2 and 16.6 mm^2; B16 Tumour Volume (B16 melanoma cells; Day 3, drug dose 0.5 mg): 0.5 mm^2 and 0 mm^2 and 21.8 mm^2 and 38.3 mm^2; B16 Tumour Volume (B16 melanoma cells; Day 5, drug dose 0.5 mg): 0 mm^2 (2×) and 7.7 mm^2 and 108.4 mm^2; B16 Tumour Volume (B16 melanoma cells; Day 6, drug dose 0.5 mg): 0 mm^2 (2×) and 7.7 mm^2 and 125.1 mm^2; B16 Tumour Volume (B16 melanoma cells; Day 7, drug dose 0.5 mg): 0 mm^2 (2×) and 5.9 mm^2 and 174.1 mm^2; mice died (B16 melanoma cells; chlorambucil test group): 3 out of 7
